Columns and labels:
[1] = 4-Methoxy-benzylamine formulation mice skin penetration test (plasma level by HPLC); assay type: in vivo; details: topical on mouse back
Procedure: Mice Test Procedures: • 1. […] The 12 mice were randomly divided into two groups. […] Add methanol and acetonitrile 200 μL, respectively. […] Precisely transfer the supernatant solution to another test tube. At 40° C. blow N2 through to dryness. […] Supernatant solution was used directly for HPLC analysis. • 4.

[2] = formulation containing 10%, daily 2 mg/cm^2 for a week, cited from earlier work
[3] = maternal urine, gestational weeks 6-30; cited from earlier work
[4] = 2517 urine samples, 2003-2004; cited from earlier work
[5] = Californian females, 2007-2009; cited from earlier work
[6] = Urine samples collected 2007-2009 from Californian females; assay type: in vivo, human; details: from 22.9 ng/mL to 200 ng/mL
Procedure: Since the first day of sunscreen usage in 1930s, the exposure to sunscreen agents has begun. Initially, the scope and frequency of the sunscreen usage among the human population were very limited. Therefore, the levels of UV filters found in human samples were usually low. However, for the last 20 years, the situation changed dramatically. In one epidemiological study conducted in 2003-2004, 2517 urine samples from United States general population were analyzed for the presence of oxybenzone (benzophenone-3, bp-3), as part of the 2003-2004 National Health and Nutrition Examination Survey [A. M. Calafat, L. Y. Wong, X. YE, J. A. Reidy, L. L. Needham, Concentrations of the sunscreen agent benzophenone-3 in residents of the United States: National Health and nutrition Examination Survey 2003-2004, Environ. Health Perspect, 116 (2008) 893-897]. Oxybenzone was detected in 97% of the all samples with mean concentration of 22.9 ng/ml and 95th percentile concentration of 1040 ng/ml. As the data indicates, the sunscreen agent occurrences are wide spread. […] 543 (2016) 28-36]. […] About nine times higher than previously reported levels of oxybenzone (up to 13000 ng/ml, average around 200 ng/ml) were found in urine samples collected in 2007-2009 from Californian females, which is probably a result of specific demographics [C. […]

[7] = couples, samples 2005-2009; cited from earlier work

skin penetration in mice [1] | increase of average concentration in urine sample compared to 2003-2004 study [6] | Compound | maximum plasma concentration, females [2] | mean urine concentration, females [2] | maximum plasma concentration, males [2] | mean urine concentration, males [2] | correlation of maternal urinary levels with overall weight and head circumference of the baby [3] | 95th percentile concentration in urine [4] | mean concentration in urine [4] | share of urine samples in which detected [4] | average level in urine samples [5] | highest level in urine samples [5] | rank among urinary benzophenone-type UV filters in the study population [7]
could not penetrate the skin of mice |  | COc1ccc(CN)cc1 [4-methoxy-benzylamine] |  |  |  |  |  |  |  |  |  |  | 
 |  | Cc1ccc(C=C2C(=O)C3(C)CCC2C3(C)C)cc1 (stereo not drawn) [4-methylbenzylidene camphor] | 20 ng/mL | 5 ng/mL | 20 ng/mL | 7 ng/mL |  |  |  |  |  |  | 
 |  | CCCCC(CC)COC(=O)C=Cc1ccc(OC)cc1 (stereo not drawn) [octyl methoxycinnamate] | 10 ng/mL | 5 ng/mL | 2 ng/mL | 8 ng/mL |  |  |  |  |  |  | 
 | more than 9 folds | COc1ccc(C(=O)c2ccccc2)c(O)c1 [oxybenzone, 2-hydroxy-4-methoxybenzophenone] | 200 ng/mL | 60 ng/mL | 300 ng/mL | 140 ng/mL | positively correlated | 1040 ng/mL | 0.0229 µg/mL | 97% | around 200 ng/ml | up to 13000 ng/ml | most predominant
